Laboratory results reported in article PMC10269895 (Microbiology Spectrum, 2023).
≈ marks a conversion by molar mass, not a printed value. Like-named read-outs stand apart in the source and are kept apart here.

Key:
[1] = Solubility in 0.9% NaCl solution; assay type: physicochemical; details: sodium chloride solution (0.9%)
Protocol: (ii) Solubility in 0.9% NaCl solution. To obtain a crystal-like form of the compound, GE81112A was dissolved in water followed by freeze-drying. Afterwards, 510 μg GE81112A was transferred to a glass vial with a microinsert, and 50 μL NaCl (0.9%) was added.

hNaV1.5 = hNaV1.5 (Homo sapiens, UniProt Q14524); assay: Off-target ion channel profiling (automated patch clamp); assay type: cell-based; details: concentrations up to 30 μM
Protocol: (§1) The effect of GE81112A on the hERG and other ion channels (hNaV1.5, hNaV1.2, hCaV3.1, or hKV4.3) was investigated using an automated patch-clamp method, as described by Houtmann et al. ([17]). GE81112A was diluted in a 5-fold 1:3 dilution series with a final concentration range of 30 to 0.12 μM in extracellular medium (150 mM NaCl, 4 mM KCl, 2 mM CaCl2, 1 mM MgCl2, 10 mM HEPES, 10 mM glucose, 0.06% Pluronic F-68, 0.3% residual DMSO). The hERG channel was constitutively expressed in Chinese hamster ovary (CHO) cells (CHO hERG Duo; B’SYS GmbH, Witterswil, Switzerland). CHO cells were grown at a concentration of 8 × 10^6 CHO cells/mL in QPlates (Sophion/Biolin Scientific, Ballerup, Denmark) in Ex-Cell animal component-free CHO medium (Sigma-Aldrich) supplemented with 25 mM HEPES, 100 U/mL penicillin-streptomycin, and 0.004% soybean trypsin inhibitor. To each well, we added extracellular medium containing the desired concentration of GE81112A. The peptide-hERG interaction was quantified by recording the tail current following repolarization of the hERG channels using a QPatch HTX station (Sophion/Biolin Scientific). The IC50 values were determined using the values from three replicates of the GE81112A concentration series with respect to the terfenadine citrate positive control and extracellular medium (blank).

hERG = molecular target: T1, hERG (Homo sapiens, UniProt Q12809); assay: as above; assay type: cell-based; details: concentrations up to 30 μM
T1 construct: host or cells: CHO
Protocol: as §1

hCaV3.1 = hCaV3.1 (Homo sapiens, UniProt O43497); assay: as above; assay type: cell-based; details: concentrations up to 30 μM
Protocol: as §1

hNaV1.2 = hNaV1.2 (Homo sapiens, UniProt Q99250); assay: as above; assay type: cell-based; details: concentrations up to 30 μM
Protocol: as §1

hKV4.3 = hKV4.3 (Homo sapiens, UniProt Q9UK17); assay: as above; assay type: cell-based; details: concentrations up to 30 μM
Protocol: as §1

[2] = test system: K. pneumoniae ATCC BAA-2470; details: NDM-1 strain
Protocol: (§2) MICs were determined by adapting the protocol from CLSI guidelines (Table 1; [15]). Briefly, from an overnight preculture, 49.2 μL of an inoculum of 5 × 10^5 CFU/mL in MH broth or DMEM was dispensed into 384-well plates, and 0.8 μL of compounds solubilized in dimethyl sulfoxide (DMSO) and serially diluted was added to the bacterial cultures. […] MICs were determined by measurement of the optical density at 600 nm (OD600). The experiments were performed in duplicate. Commercially available strains were obtained from the American Type Culture Collection (ATCC), the German Collection of Microorganisms and Cell Cultures (DSMZ), and the Biological Resource Center of Institut Pasteur (CRBIP).

C. freundii ATCC 8090 = test system: C. freundii ATCC 8090
Protocol: as §2

E. cloacae ATCC BAA-2468 = details: NDM-1 strain
Protocol: as §2

E. coli DSM 46345 = test system: E. coli DSM 46345
Protocol: as §2

P. mirabilis DSM4479 = test system: P. mirabilis DSM4479
Protocol: as §2

E. coli ATCC BAA-2469 = details: NDM-1 strain
Protocol: as §2

P. stuartii ATCC 29851 = test system: P. stuartii ATCC 29851
Protocol: as §2

E. coli MG1655 = test system: E. coli MG1655
Protocol: as §2

E. cloacae CIP 105879 = test system: E. cloacae CIP 105879
Protocol: as §2

[3] = Cellular permeability assay using the CaCo2/TC7 cell line; assay type: in vitro ADME, human; details: human, Caco-2; 1 or 20 μM, apical-to-basolateral, 120 min, pH 7.4; read-out: Apparent permeability
Protocol: (§3) CaCo2/TC7 cells were seeded in a Falcon 24-well multiwell insert system with 1.0-μm-pore high-density polyethylene terephthalate (PET) membrane plates, at a density of 60,000 cells per well in DMEM (high glucose, with Glutamax I, without HEPES, with 20% fetal calf serum [FCS], and with penicillin-streptomycin). The cells were incubated for at least 21 days to ensure complete differentiation, polarization, and formation of a tight barrier layer. Permeability assays were performed in Hanks’ balanced salt solution (HBSS) with sodium taurocholate (186 μM), HEPES (10 mM), and bovine serum albumin (BSA) (0.5% [wt/vol]), adjusted to pH 7.4 with sodium hydroxide (1 N). GE81112A at 1 and 20 μM was assayed for 120 min in the apical-to-basolateral direction with an apical pH of 7.4 and a basolateral pH of 7.4, without a BSA gradient (0.5%) on either side. After the incubation period, apical and basolateral concentrations of GE81112A were determined using liquid chromatography-tandem mass spectrometry (LC-MS/MS).

CaCo2/TC7 cells = assay: as above; assay type: in vitro ADME, human; details: predicted from CaCo2/TC7 permeability
Protocol: as §3

hNaV1.2, sequence (Q99250 whole entry): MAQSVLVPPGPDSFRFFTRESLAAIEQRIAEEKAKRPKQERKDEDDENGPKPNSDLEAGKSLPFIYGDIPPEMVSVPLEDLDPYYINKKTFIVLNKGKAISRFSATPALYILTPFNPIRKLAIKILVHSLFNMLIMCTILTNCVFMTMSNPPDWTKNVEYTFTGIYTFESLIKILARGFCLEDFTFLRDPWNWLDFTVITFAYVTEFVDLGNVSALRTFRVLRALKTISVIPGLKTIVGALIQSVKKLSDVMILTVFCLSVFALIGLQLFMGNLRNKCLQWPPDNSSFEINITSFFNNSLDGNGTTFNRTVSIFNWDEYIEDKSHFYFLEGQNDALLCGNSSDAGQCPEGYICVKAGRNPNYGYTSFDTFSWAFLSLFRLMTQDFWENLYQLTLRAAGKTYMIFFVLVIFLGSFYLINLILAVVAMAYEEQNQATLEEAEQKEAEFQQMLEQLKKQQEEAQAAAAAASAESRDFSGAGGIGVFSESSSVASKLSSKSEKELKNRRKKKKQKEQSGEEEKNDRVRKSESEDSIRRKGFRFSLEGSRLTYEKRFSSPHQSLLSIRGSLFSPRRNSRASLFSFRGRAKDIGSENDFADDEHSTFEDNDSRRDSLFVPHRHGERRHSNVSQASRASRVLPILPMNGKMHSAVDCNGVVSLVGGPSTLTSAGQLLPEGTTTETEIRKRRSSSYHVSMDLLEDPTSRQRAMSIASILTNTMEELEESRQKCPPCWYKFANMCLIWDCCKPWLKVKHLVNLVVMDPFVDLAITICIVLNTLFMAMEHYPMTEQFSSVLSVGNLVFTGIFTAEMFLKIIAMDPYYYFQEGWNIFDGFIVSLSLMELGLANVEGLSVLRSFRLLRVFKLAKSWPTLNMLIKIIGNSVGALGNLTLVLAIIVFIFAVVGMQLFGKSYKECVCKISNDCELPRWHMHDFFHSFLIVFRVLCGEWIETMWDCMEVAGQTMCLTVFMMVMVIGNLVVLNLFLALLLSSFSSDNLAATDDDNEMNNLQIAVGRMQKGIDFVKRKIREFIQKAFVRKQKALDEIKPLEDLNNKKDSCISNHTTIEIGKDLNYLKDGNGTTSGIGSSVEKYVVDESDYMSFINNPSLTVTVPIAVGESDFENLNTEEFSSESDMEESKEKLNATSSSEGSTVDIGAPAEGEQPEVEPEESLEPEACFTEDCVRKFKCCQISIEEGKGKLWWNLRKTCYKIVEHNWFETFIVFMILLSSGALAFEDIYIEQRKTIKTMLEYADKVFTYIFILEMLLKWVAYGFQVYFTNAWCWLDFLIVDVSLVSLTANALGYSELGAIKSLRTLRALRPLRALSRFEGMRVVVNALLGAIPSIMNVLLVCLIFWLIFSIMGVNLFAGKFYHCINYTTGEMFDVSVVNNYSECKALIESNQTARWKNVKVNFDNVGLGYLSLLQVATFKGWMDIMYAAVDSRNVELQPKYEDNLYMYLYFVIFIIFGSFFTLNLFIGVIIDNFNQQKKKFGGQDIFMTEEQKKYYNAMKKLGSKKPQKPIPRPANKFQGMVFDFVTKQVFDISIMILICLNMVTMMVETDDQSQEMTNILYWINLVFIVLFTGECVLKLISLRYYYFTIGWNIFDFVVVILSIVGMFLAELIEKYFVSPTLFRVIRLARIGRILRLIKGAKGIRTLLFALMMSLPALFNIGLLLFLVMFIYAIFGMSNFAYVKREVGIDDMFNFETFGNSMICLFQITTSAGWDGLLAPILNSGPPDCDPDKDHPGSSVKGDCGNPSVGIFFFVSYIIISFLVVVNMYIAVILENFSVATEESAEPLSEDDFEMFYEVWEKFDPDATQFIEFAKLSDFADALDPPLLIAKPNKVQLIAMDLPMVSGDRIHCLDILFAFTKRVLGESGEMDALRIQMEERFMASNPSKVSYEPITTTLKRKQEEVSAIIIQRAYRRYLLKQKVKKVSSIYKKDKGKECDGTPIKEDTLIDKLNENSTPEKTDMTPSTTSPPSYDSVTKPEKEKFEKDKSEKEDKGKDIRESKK
hNaV1.5, sequence (Q14524 whole entry): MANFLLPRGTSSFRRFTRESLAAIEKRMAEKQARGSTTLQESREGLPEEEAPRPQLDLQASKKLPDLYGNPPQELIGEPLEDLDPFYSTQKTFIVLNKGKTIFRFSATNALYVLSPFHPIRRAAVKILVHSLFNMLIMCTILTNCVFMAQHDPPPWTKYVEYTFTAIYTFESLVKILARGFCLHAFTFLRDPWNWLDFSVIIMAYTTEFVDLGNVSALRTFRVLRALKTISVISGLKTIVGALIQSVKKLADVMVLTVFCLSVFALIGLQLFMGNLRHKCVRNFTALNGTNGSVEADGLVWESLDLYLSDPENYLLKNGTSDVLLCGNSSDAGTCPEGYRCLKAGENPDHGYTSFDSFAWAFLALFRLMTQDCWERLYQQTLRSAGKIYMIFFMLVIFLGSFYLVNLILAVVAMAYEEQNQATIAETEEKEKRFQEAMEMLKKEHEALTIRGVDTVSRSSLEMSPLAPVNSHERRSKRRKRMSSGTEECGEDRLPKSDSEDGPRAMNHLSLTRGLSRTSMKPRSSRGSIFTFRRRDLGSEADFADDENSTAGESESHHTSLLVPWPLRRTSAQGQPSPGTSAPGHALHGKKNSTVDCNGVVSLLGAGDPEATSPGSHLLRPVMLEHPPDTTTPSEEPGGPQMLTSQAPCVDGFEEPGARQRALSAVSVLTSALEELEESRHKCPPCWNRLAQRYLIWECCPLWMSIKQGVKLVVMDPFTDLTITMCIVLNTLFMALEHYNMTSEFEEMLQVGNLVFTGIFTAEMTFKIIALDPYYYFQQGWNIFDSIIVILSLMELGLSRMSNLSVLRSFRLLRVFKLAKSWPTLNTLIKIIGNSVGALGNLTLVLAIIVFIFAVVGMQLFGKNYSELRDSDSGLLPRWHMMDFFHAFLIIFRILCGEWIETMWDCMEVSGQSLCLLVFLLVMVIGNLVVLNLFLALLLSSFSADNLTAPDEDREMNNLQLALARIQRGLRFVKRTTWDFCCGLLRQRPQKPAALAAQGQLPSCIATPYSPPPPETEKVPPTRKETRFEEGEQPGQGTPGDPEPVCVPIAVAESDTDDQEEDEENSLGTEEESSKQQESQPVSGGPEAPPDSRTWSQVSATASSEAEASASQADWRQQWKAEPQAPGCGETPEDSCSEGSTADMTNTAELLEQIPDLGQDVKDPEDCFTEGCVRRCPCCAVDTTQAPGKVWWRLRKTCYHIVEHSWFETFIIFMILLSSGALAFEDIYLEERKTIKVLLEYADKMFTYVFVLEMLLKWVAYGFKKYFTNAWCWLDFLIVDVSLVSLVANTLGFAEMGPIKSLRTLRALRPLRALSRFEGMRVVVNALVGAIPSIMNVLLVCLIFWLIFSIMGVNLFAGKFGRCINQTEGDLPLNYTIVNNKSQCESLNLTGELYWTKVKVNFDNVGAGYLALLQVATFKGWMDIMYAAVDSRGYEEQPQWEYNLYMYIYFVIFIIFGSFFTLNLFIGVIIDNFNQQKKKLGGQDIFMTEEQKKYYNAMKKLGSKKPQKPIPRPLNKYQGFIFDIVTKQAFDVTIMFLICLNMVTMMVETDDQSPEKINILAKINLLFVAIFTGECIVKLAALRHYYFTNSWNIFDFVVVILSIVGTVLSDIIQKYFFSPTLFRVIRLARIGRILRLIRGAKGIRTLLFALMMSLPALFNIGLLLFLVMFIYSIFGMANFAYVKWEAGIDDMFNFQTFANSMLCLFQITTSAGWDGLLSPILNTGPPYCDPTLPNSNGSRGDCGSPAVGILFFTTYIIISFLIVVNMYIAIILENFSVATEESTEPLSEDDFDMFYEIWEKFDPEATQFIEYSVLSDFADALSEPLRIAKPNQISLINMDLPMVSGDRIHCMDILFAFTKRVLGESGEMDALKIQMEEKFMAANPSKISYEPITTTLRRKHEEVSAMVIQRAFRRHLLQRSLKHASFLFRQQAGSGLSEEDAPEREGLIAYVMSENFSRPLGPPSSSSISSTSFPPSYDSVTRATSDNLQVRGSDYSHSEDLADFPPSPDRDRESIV
T1 sequence (Q12809 whole entry): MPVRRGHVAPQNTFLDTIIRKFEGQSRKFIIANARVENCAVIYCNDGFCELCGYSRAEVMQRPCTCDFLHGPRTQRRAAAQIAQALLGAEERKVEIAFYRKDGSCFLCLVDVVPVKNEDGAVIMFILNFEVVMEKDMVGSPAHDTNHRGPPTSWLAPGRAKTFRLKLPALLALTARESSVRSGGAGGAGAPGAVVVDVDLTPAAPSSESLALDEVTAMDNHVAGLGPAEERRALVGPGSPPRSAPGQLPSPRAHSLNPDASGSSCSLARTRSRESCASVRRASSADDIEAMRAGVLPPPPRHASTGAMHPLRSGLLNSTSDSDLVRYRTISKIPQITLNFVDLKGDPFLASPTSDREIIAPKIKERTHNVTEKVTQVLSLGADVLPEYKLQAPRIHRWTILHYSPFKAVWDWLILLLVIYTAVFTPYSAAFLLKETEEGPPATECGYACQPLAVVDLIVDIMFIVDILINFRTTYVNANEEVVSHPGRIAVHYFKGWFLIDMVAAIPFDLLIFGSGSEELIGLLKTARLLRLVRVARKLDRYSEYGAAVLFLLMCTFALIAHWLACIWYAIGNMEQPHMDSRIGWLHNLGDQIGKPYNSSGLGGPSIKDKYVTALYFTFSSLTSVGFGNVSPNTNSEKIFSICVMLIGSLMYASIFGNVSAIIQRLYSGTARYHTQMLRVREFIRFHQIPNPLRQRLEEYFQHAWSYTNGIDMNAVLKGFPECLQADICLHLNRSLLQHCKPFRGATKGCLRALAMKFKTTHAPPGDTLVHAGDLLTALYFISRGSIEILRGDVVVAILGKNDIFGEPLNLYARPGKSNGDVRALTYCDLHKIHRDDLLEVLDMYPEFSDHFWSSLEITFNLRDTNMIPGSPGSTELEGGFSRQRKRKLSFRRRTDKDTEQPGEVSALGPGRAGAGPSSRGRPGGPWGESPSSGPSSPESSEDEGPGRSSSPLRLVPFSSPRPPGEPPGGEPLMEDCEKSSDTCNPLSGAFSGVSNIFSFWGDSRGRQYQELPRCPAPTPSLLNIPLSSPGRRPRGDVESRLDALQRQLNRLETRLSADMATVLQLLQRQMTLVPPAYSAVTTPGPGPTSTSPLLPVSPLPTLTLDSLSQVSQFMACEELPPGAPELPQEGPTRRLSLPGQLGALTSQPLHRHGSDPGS

## NC(=O)OC[C@@H](O)C[C@H](NC(=O)[C@H]1NCCC[C@H]1O)C(=O)N[C@@H](Cc1c[nH]cn1)C(=O)N[C@H](C(=O)O)[C@H](O)c1cnc(Cl)[nH]1 [GE81112A]
[1]
  solubility: > 500 µg/mL
hNaV1.5
  Ion channel inhibition: did not inhibit
hERG
  Ion channel inhibition: did not inhibit
hCaV3.1
  Ion channel inhibition: did not inhibit
hNaV1.2
  Ion channel inhibition: did not inhibit
hKV4.3
  Ion channel inhibition: did not inhibit
[2]; DMEM
  MIC: >64 µg/mL
[2]; MHII
  MIC: >64 µg/mL
C. freundii ATCC 8090; DMEM
  MIC: 32 µg/mL (≈ 49.7 µM)
C. freundii ATCC 8090; MHII
  MIC: >64 µg/mL
E. cloacae ATCC BAA-2468; DMEM
  MIC: >64 µg/mL
E. cloacae ATCC BAA-2468; MHII
  MIC: >64 µg/mL
E. coli DSM 46345; DMEM
  MIC: >64 µg/mL
E. coli DSM 46345; MHII
  MIC: >64 µg/mL
P. mirabilis DSM4479; DMEM
  MIC: 64 µg/mL (≈ 99.4 µM)
P. mirabilis DSM4479; MHII
  MIC: >64 µg/mL
E. coli ATCC BAA-2469; DMEM
  MIC: >64 µg/mL
E. coli ATCC BAA-2469; MHII
  MIC: >64 µg/mL
P. stuartii ATCC 29851; DMEM
  MIC: >64 µg/mL
P. stuartii ATCC 29851; MHII
  MIC: >64 µg/mL
E. coli MG1655; DMEM
  MIC: 1 µg/mL (≈ 1.55 µM)
E. coli MG1655; MHII
  MIC: >64 µg/mL
E. cloacae CIP 105879; DMEM
  MIC: >64 µg/mL
E. cloacae CIP 105879; MHII
  MIC: >64 µg/mL
[3]
  Papp at 120 min: 0.028 to 0.316 ×10⁻⁶ cm/s
CaCo2/TC7 cells
  Absorption in the human intestine (predicted): low
